Experiment: In vitro bovine teeth test (stain prevention solutions)
Conditions: for concentration showing a significant visible whitening effect: % by weight of solution, bovine teeth test; for stain-prevention effect: bovine teeth tests, dose response of solutions of Table 1 (FIG. 1), change in whitening index
Method: HAD assay and the bovine teeth test were employed by methods generally known in the art for screening stain prevention actives. HAD assays generally included pre-coating a HAD disc with saliva for 1-2 hours and subsequently exposing the disc to a staining broth containing tea, coffee, gastric mucin, trypticase soy broth and saliva for four days. Each day, the disc was moved from staining broth to a solution with a stain prevention formulation three times. The process was repeated for four days. The disc was dried and the color was measured. […] The color of the bovine teeth was measured before and after staining.
To evaluate stain prevention effect, the whitening index of the teeth before and after staining and treatment was calculated. The white index, W, is defined as:
W*=√{square root over ((L*−1.00)^2+(a*)^2+(b*)^2)}
A pure white substance will have W value of […]. The higher the value of ΔW, the whiter the sample would be.
In total, 4-6 HA discs or bovine teeth were tested for each compound or combination. The values were averaged.

Row | Compound | concentration showing a significant visible whitening effect | stain-prevention effect | relative effectiveness for stain prevention (comparison between compounds or combinations)
1 | CCCCCCCCCCCC(=O)N[C@@H](CCCN=C(N)N)C(=O)OCC [LAE, lauroyl arginine ethyl ether] | ≥ 0.05% | very effective | 
2 | O=P([O-])([O-])OP(=O)([O-])[O-].[Na+].[Na+].[Na+].[Na+] [SPP, sodium pyrophosphate] |  | very effective | 
3 | O=P(O)(O)OP(=O)(O)OP(=O)(O)O [STP, sodium tripolyphosphate] | ≥ 0.1% | very effective | more effective
4 | NC(N)=O [Urea, urea] |  | very effective | 
5 | OO [hydrogen peroxide, reference compound] | ≥ 0.25% |  | 

From patent US20190289874A1, “STAIN PREVENTION FORMULATIONS” (WM. WRIGLEY JR. COMPANY, priority 2016, published 2019)
